Where two headings read alike, the source gives them in different places.
Columns and labels:
Assay type in all cases: cell-based
[1] = tested on: Clostridium dificile KCCM 12115; test: Agar diffusion antibacterial test (anaerobic); conditions: C. difficile
[2] = tested on: Pseudomonas aeruginosa KCTC 1637; test: MIC by broth dilution method; conditions: P. aeruginosa, 37° C., 24 hours
[3] = tested on: Bacillus subtilis KCTC 1021; test: Agar diffusion antibacterial test (aerobic); conditions: B. subtilis
[4] = tested on: Propionibacterium acne ATCC 6919; test: Agar diffusion antibacterial test (anaerobic); conditions: P. acne
[5] = tested on: Shigella flexneri KCTC 2517; test: MIC by broth dilution method; conditions: S. flexneri, 37° C., 24 hours
[6] = tested on: Pseudomonas aeruginosa KCTC 1637; test: Agar diffusion antibacterial test (aerobic); conditions: P. aeruginosa
[7] = tested on: Salmonella enteritidis KCTC 12400; test: Agar diffusion antibacterial test (aerobic); conditions: S. enteritidis
[8] = tested on: Bacteroides fragilis KCTC 3688; test: MIC by broth dilution method; conditions: B. fragilis, 37° C., 24 hours
[9] = tested on: Shigella flexneri KCTC 2517; test: Agar diffusion antibacterial test (aerobic); conditions: S. flexneri
[10] = tested on: Staphylococcus aureus KCTC 1916; test: Agar diffusion antibacterial test (aerobic); conditions: S. aureus
[11] = tested on: Legionella pneumophila KCCM 41779; conditions: L. pneumophila
[12] = tested on: Escherichia coli KCTC 1039; test: Agar diffusion antibacterial test (aerobic); conditions: E. coli
[13] = tested on: Bordetella bronchiseptica KCCM 21998; test: Agar diffusion antibacterial test (aerobic); conditions: B. bronchiseptica
[14] = tested on: Bordetella bronchiseptica KCCM 21998; test: MIC by broth dilution method; conditions: B. bronchiseptica, 37° C., 24 hours
[15] = tested on: Actiinobacillus ureae KCTC 2674; test: Agar diffusion antibacterial test (aerobic); conditions: A. ureae
[16] = tested on: Shigella sonnei KCTC 2518; test: MIC by broth dilution method; conditions: S. sonnei, 37° C., 24 hours
[17] = tested on: Neisseria meningitidis KCCM 41562; test: Agar diffusion antibacterial test (aerobic); conditions: N. meningitidis
[18] = tested on: Clostridium dificile KCCM 12115; test: MIC by broth dilution method; conditions: C. difficile, 37° C., 24 hours
[19] = tested on: Listeria monocytogenes KCTC 3569; test: Agar diffusion antibacterial test (aerobic); conditions: L. monocytogenes
[20] = tested on: Actiinobacillus ureae KCTC 2674; test: MIC by broth dilution method; conditions: A. ureae, 37° C., 24 hours
[21] = tested on: Streptococcus mutans KCTC 3065; test: MIC by broth dilution method; conditions: S. mutans, 37° C., 24 hours
[22] = tested on: 18 species of pathogenic bacteria (aerobic); test: Agar diffusion antibacterial test, overall (aerobic); conditions: all kinds of test bacteria (aerobic), agar diffusion
[23] = tested on: Aeromonas salmonicida KCTC 12266; test: MIC by broth dilution method; conditions: A. salmonicida, 37° C., 24 hours
[24] = tested on: Bacillus subtilis KCTC 1021; test: MIC by broth dilution method; conditions: B. subtilis, 37° C., 24 hours
[25] = tested on: Propionibacterium granulosum ATCC 25564; test: MIC by broth dilution method; conditions: P. granulosum, 37° C., 24 hours
[26] = tested on: Campylobacter jejuni KCTC 5327; test: Agar diffusion antibacterial test (anaerobic); conditions: C. jejuni
[27] = tested on: Vibrio parahaemolyticus KCTC 27; test: Agar diffusion antibacterial test (aerobic); conditions: V. parahaemolyticus
[28] = tested on: Moraxella catarrhalis KCCM 40056; test: Agar diffusion antibacterial test (aerobic); conditions: M. catarrhalis

## C=C1C(=O)OC[C@H]1O [S-(−)-tulipalin B, (4S)-4-hydroxy-3-methylene-oxolan-2-one]
[1]; treatment concentration 0.1%
  Inhibitory zone diameter: 10.5 mm
[1]; treatment concentration 0.3%
  Inhibitory zone diameter: 13 mm
[1]; treatment concentration 1.0%
  Inhibitory zone diameter: 13 mm
[2]
  MIC: 0.11%
[3]; treatment concentration 0.03%
  Inhibitory zone diameter: 11 mm
[3]; treatment concentration 0.1%
  Inhibitory zone diameter: 13 mm
[3]; treatment concentration 0.3%
  Inhibitory zone diameter: 15 mm
[3]; treatment concentration 1.0%
  Inhibitory zone diameter: 17 mm
[4]; treatment concentration 0.03%
  Inhibitory zone diameter: 11 mm
[4]; treatment concentration 0.1%
  Inhibitory zone diameter: 13 mm
[4]; treatment concentration 0.3%
  Inhibitory zone diameter: 14 mm
[4]; treatment concentration 1.0%
  Inhibitory zone diameter: 16 mm
[5]
  MIC: 0.025%
[6]; treatment concentration 0.3%
  Inhibitory zone diameter: 12 mm
[6]; treatment concentration 1.0%
  Inhibitory zone diameter: 14 mm
[7]; treatment concentration 0.03%
  Inhibitory zone diameter: 11 mm
[7]; treatment concentration 0.1%
  Inhibitory zone diameter: 13 mm
[7]; treatment concentration 0.3%
  Inhibitory zone diameter: 16.5 mm
[7]; treatment concentration 1.0%
  Inhibitory zone diameter: 20 mm
[8]
  MIC: 0.01%
[9]; treatment concentration 0.03%
  Inhibitory zone diameter: 10.5 mm
[9]; treatment concentration 0.1%
  Inhibitory zone diameter: 13 mm
[9]; treatment concentration 0.3%
  Inhibitory zone diameter: 18 mm
[9]; treatment concentration 1.0%
  Inhibitory zone diameter: 19 mm
[10]; treatment concentration 0.1%
  Inhibitory zone diameter: 12 mm
[10]; treatment concentration 0.3%
  Inhibitory zone diameter: 15 mm
[10]; treatment concentration 1.0%
  Inhibitory zone diameter: 18 mm
[11]; treatment concentration 0.03%
  Inhibitory zone diameter: 11 mm
[11]; treatment concentration 0.1%
  Inhibitory zone diameter: 12 mm
[11]; treatment concentration 0.3%
  Inhibitory zone diameter: 16 mm
[11]; treatment concentration 1.0%
  Inhibitory zone diameter: 18 mm
[12]; treatment concentration 0.01%
  Inhibitory zone diameter: 10.5 mm
[12]; treatment concentration 0.03%
  Inhibitory zone diameter: 11.5 mm
[12]; treatment concentration 0.1%
  Inhibitory zone diameter: 13 mm
[12]; treatment concentration 0.3%
  Inhibitory zone diameter: 16 mm
[12]; treatment concentration 1.0%
  Inhibitory zone diameter: 20 mm
[13]; treatment concentration 0.03%
  Inhibitory zone diameter: 12 mm
[13]; treatment concentration 0.1%
  Inhibitory zone diameter: 14 mm
[13]; treatment concentration 0.3%
  Inhibitory zone diameter: 18 mm
[13]; treatment concentration 1.0%
  Inhibitory zone diameter: 20 mm
[14]
  MIC: 0.03%
[15]; treatment concentration 0.03%
  Inhibitory zone diameter: 11 mm
[15]; treatment concentration 0.1%
  Inhibitory zone diameter: 12 mm
[15]; treatment concentration 0.3%
  Inhibitory zone diameter: 17 mm
[15]; treatment concentration 1.0%
  Inhibitory zone diameter: 19 mm
[16]
  MIC: 0.03%
[17]; treatment concentration 0.03%
  Inhibitory zone diameter: 11 mm
[17]; treatment concentration 0.1%
  Inhibitory zone diameter: 12 mm
[17]; treatment concentration 0.3%
  Inhibitory zone diameter: 16 mm
[17]; treatment concentration 1.0%
  Inhibitory zone diameter: 18 mm
[18]
  MIC: 0.10%
[19]; treatment concentration 0.1%
  Inhibitory zone diameter: 11 mm
[19]; treatment concentration 0.3%
  Inhibitory zone diameter: 13 mm
[19]; treatment concentration 1.0%
  Inhibitory zone diameter: 16 mm
[20]
  MIC: 0.03%
[21]
  MIC: 0.10%
[22]
  Antibacterial effects: high antibacterial effects
[23]
  MIC: 0.01%
[24]
  MIC: 0.04%
[25]
  MIC: 0.03%
[26]; treatment concentration 0.01%
  Inhibitory zone diameter: 11.5 mm
[26]; treatment concentration 0.03%
  Inhibitory zone diameter: 13 mm
[26]; treatment concentration 0.1%
  Inhibitory zone diameter: 15 mm
[26]; treatment concentration 0.3%
  Inhibitory zone diameter: 16 mm
[26]; treatment concentration 1.0%
  Inhibitory zone diameter: 18 mm
[27]; treatment concentration 0.01%
  Inhibitory zone diameter: 11 mm
[27]; treatment concentration 0.03%
  Inhibitory zone diameter: 13 mm
[27]; treatment concentration 0.1%
  Inhibitory zone diameter: 14 mm
[27]; treatment concentration 0.3%
  Inhibitory zone diameter: 18 mm
[27]; treatment concentration 1.0%
  Inhibitory zone diameter: 19 mm
[28]; treatment concentration 0.03%
  Inhibitory zone diameter: 11 mm
[28]; treatment concentration 0.1%
  Inhibitory zone diameter: 11 mm
[28]; treatment concentration 0.3%
  Inhibitory zone diameter: 15 mm
[28]; treatment concentration 1.0%
  Inhibitory zone diameter: 18 mm
